Experimental data as given in patent US20250299826A1, “OPTIMAL TUMOR MICROENVIRONMENT NORMALIZATION THERAPY” (University of Connecticut, priority 2022, published 2025).

Test system: orthotopic 4T1 breast cancer
Assay: Tumor transport model simulation: IFP/IFV, solute concentration and transvascular convective/diffusive flux profiles
Conditions: DEX treatment

C[C@@H]1C[C@H]2[C@@H]3CCC4=CC(=O)C=C[C@]4(C)[C@@]3(F)[C@@H](O)C[C@]2(C)[C@@]1(O)C(=O)CO [DEX, dexamethasone]
increase in volume fraction of tumor dominated by convective transport vs control: 61%
